Results on 4 compounds are retold here after patent US10076522B2, “Systems and methods for treating bacterial infection” (priority 2016, dated 2018).

For series [1] the following is noted: human, in vivo.
For series [2] the following is noted: in vivo, iv; cited from earlier work.
Series [3] can be described thus: Acute IV toxicity in rats. Particulars: rat, in vivo.
The nature of series [4]: physchem. Conditions: 20 °C, water.
Series [5] can be described thus: pH of a 1% solution in water. In kind it is physicochemical.
Series [6] in a line: in vivo. Conditions: both; for NOAEL at 28 day: marmoset. As for the experimental part:
A repeated-dose, 4-week toxicity study was conducted in male and female rats, where single, daily IV bolus doses up to 60 mg/kg were given. […] A 28-day toxicity study was also conducted in male and female marmosets, where iclaprim mesylate was infused intravenously over a 20-minute interval.

A short description of series [7]: physchem.
The nature of series [8]: Acute IV toxicity in the mouse. In kind it is in vivo.
Series [9] is described as follows: Phase III REVIVE-1 study, safety (adverse events). Conditions: REVIVE-1 safety population. As for the experimental part:
All subjects who received any study drug were evaluated for safety on the basis of medical history and physical examinations, reports of clinical AEs, routine electrocardiography, and clinically significant findings from routine liver function tests, serum chemistry, hematology, coagulation, and urinalysis (UA) tests. All adverse events were recorded throughout the study period, up to and including the LFU phone call. While blinded to treatment assignment, the investigator categorized the severity of each AE and the potential for relationship to study drug. Serious AEs (SAEs) include those that were life threatening, led to prolongation of the existing hospitalization, a congenital anomaly/birth defect, or caused persistent or significant disability, incapacity, or death. Treatment-emergent AEs (TEAEs) were defined as those that start or worsen in severity during or after the first dose of study drug administration through end of study.
Safety evaluation included incidence of TEAEs, laboratory test results (including liver function tests), vital signs, ECG results, and physical examination findings. All summaries of safety data was based on the safety population (all treated subjects).
The AE summary tables included subject (patient) counts. Therefore, if a subject experienced more than one episode of a particular AE, the subject was counted only once for that event. If a subject had more than one AE that was coded to the same preferred term, the subject was counted only once for that preferred term. Similarly, if a subject had more than one AE within a SOC, the subject was counted only once in that SOC.

Series [10] deals with acute bacterial skin and skin structure infections (ABSSSIs) suspected or confirmed to be due to Gram-positive pathogens. The series can be described thus: Phase III REVIVE-1 study, efficacy of fixed dose iclaprim versus vancomycin. In kind it is in vivo, human. Particulars: ITT. The method, then: Subjects were evaluated daily up to ETP, then every 48 to 72 hours through the end of treatment. If the last dose of study drug fell on a day when an evaluation was not planned, an additional evaluation visit was performed on that day (i.e., all EOT evaluations were performed on the last day [+2 days] of drug dose).
The infusion time and duration of treatment for both groups was 2 hours and 5 days (minimum duration) to 14 days (maximum duration), respectively.
The primary endpoint for clinical response (defined as the reduction in lesion size ≥20% compared to baseline) was evaluated in all randomized subjects at ETP (48 to 72 hours post-first dose). […] In addition, clinical outcome was evaluated by the investigator at EOT and TOC (7 to 14 days post EOT). The assessments of clinical outcome was categorized as cure, failure, or indeterminate.
Iclaprim was administered at a dose of 80 mg in 500 mL normal saline, infused over 2 hours q12h (every 12 hours) for 5 to 14 days. For subjects with moderate hepatic impairment (Child-Pugh Class B), iclaprim was administered at a dose of 40 mg in 500 mL normal saline, infused over 2 hours q12h for 5 to 14 days.
Dosing interval was every q12 h, q24 h, q48 h, or dosed by daily level based on creatinine clearance.
The primary efficacy endpoint was the proportion of randomized subjects who achieved an early clinical response (defined as reduction in the lesion size ≥20% compared to baseline) at 48 to 72 hours (ETP) and was evaluated among all randomized subjects (ITT population).
The NI bound were 10%. […] Equivalently, if the lower bound of the two-sided 95% CI for P1-P2 was greater than −0.100 based on the Z test with unpooled variance estimate, NI was concluded.

Structures can show the parent of a compound that is named as a salt.

`CC(=O)NC[C@H]1CN(c2ccc(N3CCOCC3)c(F)c2)C(=O)O1` [linezolid, reference compound]: the “adverse events related to QTc prolongation” value in [1] stood at 2 cases.
For the compound `CC[C@H]1OC(=O)[C@H](C)[C@@H](O[C@H]2C[C@@](C)(OC)[C@@H](O)[C@H](C)O2)[C@H](C)[C@@H](O[C@@H]2O[C@H](C)C[C@H](N(C)C)[C@H]2O)[C@](C)(OC)C[C@@H](C)C(=O)[C@H](C)[C@@H](O)[C@]1(C)O` [clarithromycin], the QTc prolongation in series [2] is 3 to 11 ms.
In general, LD50 refers to the dose expected to kill half of the subjects tested. Read a low LD50 as greater toxicity. By solubility is commonly meant the concentration that dissolves in the medium under given conditions. Read a high solubility as much dissolved substance. As a reminder, the NOAEL is the highest tested level that showed no adverse finding. The term pKa denotes the pH at which an ionisable group is half protonated. The low end stands for a stronger acid or weaker base, the high end for a weaker acid or stronger base. Regarding `COc1cc(Cc2cnc(N)nc2N)c2c(c1OC)OC(C1CC1)C=C2` (racemic) [iclaprim mesylate, 5-[(2RS)-2-cyclopropyl-7,8-dimethoxy-2Hchromen-5-ylmethyl] pyrimidine-2,4-diamine methanesulfonate], the results for the 50% lethal dose (LD50) in series [3] (female rats) and in [3] (male rats) were greater than 200 mg/kg and 150 to 200 mg/kg, respectively. In [4], this compound came in with a solubility of roughly 10000 µg/mL. For the same compound, in [5], the “pH value of a 1% solution in water” value is recorded as 4.2. For the same compound, the no-observed-adverse-effect level (NOAEL) at 28 day in series [6] was 3.9 mg/kg/day; in [6] (iv), 30 mg/kg/day. In [6] (rat, iv, 4 week), the “dosage with histopathological changes at the injection sites” value is recorded as no less than 10 mg/kg/day. The NOAEL at 4 week was 3.9 mg/kg/day in series [6] (rat, iv, HED of NOAEL) and greater than 30 mg/kg/day in series [6] (rat, iv, NOAEL). Moreover, the pKa in series [7] came to 7.2. Besides, in series [8], the “HED of lowest lethal IV dose” value is 6.1 mg/kg. For the same compound, the “lowest lethal IV dose” value in [8] is on record as 75 mg/kg.
As to `CN[C@H](CC(C)C)C(=O)N[C@H]1C(=O)N[C@@H](CC(N)=O)C(=O)N[C@H]2C(=O)N[C@H]3C(=O)N[C@H](C(=O)N[C@H](C(=O)O)c4cc(O)cc(O)c4-c4cc3ccc4O)[C@H](O)c3ccc(c(Cl)c3)Oc3cc2cc(c3O[C@@H]2O[C@H](CO)[C@@H](O)[C@H](O)[C@H]2O[C@H]2C[C@](C)(N)[C@H](O)[C@H](C)O2)Oc2ccc(cc2Cl)[C@H]1O` [Vancomycin, vancomycin, reference compound], in series [9], the “Deaths, number of subjects” value amounted to 1; the “Deaths, percent of subjects” value turned out to be 0.3%; the “Study drug related TEAEs, number of subjects” value was 53; the “Study drug related TEAEs, percent of subjects” value is listed as 17.8%. In series [9], the “TEAE-related SAEs (Serious AEs), number of subjects” value is listed as 12; the “TEAE-related SAEs (Serious AEs), percent of subjects” value worked out at 4.0%; the “TEAEs (Treatment Emergent Adverse Events), number of subjects” value is reported as 128; the “TEAEs (Treatment Emergent Adverse Events), percent of subjects” value is given as 43.1%. Moreover, in series [9], the “TEAEs leading to discontinuation of study drug, number of subjects” value came out at 13 and the “TEAEs leading to discontinuation of study drug, percent of subjects” value was determined as 4.4%. Further, the “Early Clinical Response (ECR), percent of subjects” value in series [10] (ETP (48 to 72 hours)) is recorded as 81.0%. Further, the “Clinical cure, number of subjects” value in series [10] (TOC (7 to 14 days after study drug discontinuation)) worked out at 261. Moreover, the “Clinical cure, percent of subjects” value in series [10] (TOC) was found to be 87.0%.
